Experimental data from PubChem BioAssay (NCI).
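Results reflect a 48-hour exposure of cells in 96-well plates to compound at five concentrations. TGI: total growth inhibition.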

Key:
Experiment in all cases: DTP human tumour cell line panel, 48 h
SF-539 CNS = system: SF-539 CNS
MOLT-4 leukemia = system: MOLT-4 leukemia
MALME-3M melanoma = system: MALME-3M melanoma
M14 melanoma = system: M14 melanoma
SNB-19 CNS = system: SNB-19 CNS
NCI-H226 lung = system: NCI-H226 lung
HS 578T breast = system: HS 578T breast
NCI-H23 lung = system: NCI-H23 lung
SF-295 CNS = system: SF-295 CNS
MDA-N = system: MDA-N
786-0 renal = system: 786-0 renal
U251 CNS = system: U251 CNS
TK-10 renal = system: TK-10 renal
PC-3 prostate = system: PC-3 prostate
OVCAR-5 ovarian = system: OVCAR-5 ovarian
SF-268 CNS = system: SF-268 CNS
OVCAR-4 ovarian = system: OVCAR-4 ovarian
BT-549 breast = system: BT-549 breast
HCT-15 colon = system: HCT-15 colon
SR leukemia = system: SR leukemia

Row | SMILES | TGI (SF-539 CNS) | TGI (MOLT-4 leukemia) | TGI (MALME-3M melanoma) | TGI (M14 melanoma) | TGI (SNB-19 CNS) | TGI (NCI-H226 lung) | TGI (HS 578T breast) | TGI (NCI-H23 lung) | TGI (SF-295 CNS) | TGI (MDA-N) | TGI (786-0 renal) | TGI (U251 CNS) | TGI (TK-10 renal) | TGI (PC-3 prostate) | TGI (OVCAR-5 ovarian) | TGI (SF-268 CNS) | TGI (OVCAR-4 ovarian) | TGI (BT-549 breast) | TGI (HCT-15 colon) | TGI (SR leukemia)
1 | Cc1ccc(-n2cnc3c(N)nc(N)nc32)cc1 | > 100 µM | > 100 µM | > 100 µM | > 100 µM | > 100 µM | > 100 µM | > 100 µM | > 100 µM | > 100 µM | > 100 µM | > 100 µM | > 100 µM | > 100 µM | > 100 µM | > 100 µM | > 100 µM | > 100 µM | > 100 µM | > 100 µM | –
2 | C/C1=C/C(C)CC(C)OC(=O)C(C)NC(=O)C(Cc2ccc(O)c(I)c2)N(C)C(=O)CNC(=O)C(C)C1 (stereo unspecified) | 4.94 µM | > 52.7 µM | 6.22 µM | > 100 µM | > 100 µM | – | 0.723 µM | > 100 µM | 1.73 µM | > 100 µM | – | 0.0707 µM | – | – | > 100 µM | 1.35 µM | – | 0.322 µM | 11.2 µM | –
3 | N#CC(C#N)N=Cc1ccncc1 | > 100 µM | > 100 µM | > 100 µM | > 100 µM | – | > 100 µM | – | > 100 µM | > 100 µM | > 100 µM | > 100 µM | > 100 µM | > 100 µM | > 100 µM | > 100 µM | > 100 µM | > 100 µM | > 100 µM | > 100 µM | –
4 | COC(=O)Nc1nc2ccc(S(=O)(=O)NC(CC(C)C)C(=O)OC)cc2[nH]1 (stereo unspecified) | 38.3 µM | 29.2 µM | 41.2 µM | – | 45 µM | > 100 µM | 3.47 µM | > 100 µM | 5.44 µM | 2.18 µM | > 100 µM | > 100 µM | 31.9 µM | > 100 µM | 95.1 µM | > 100 µM | > 100 µM | > 100 µM | > 100 µM | –
5 | Cc1cc(C)nc(NS(=O)(=O)c2ccc(Nc3c4ccccc4nc4c(C(=O)NNCCO)cccc34)cc2)n1 | – | > 100 µM | > 100 µM | > 100 µM | > 100 µM | – | > 100 µM | > 100 µM | > 100 µM | > 100 µM | > 100 µM | > 100 µM | > 100 µM | > 100 µM | > 100 µM | > 100 µM | > 100 µM | > 100 µM | > 100 µM | > 100 µM
6 | CC[C@](O)(CC(=O)O[C@H]1C(=O)O[C@@H]2C[C@H]3C(C)=CC(=O)[C@@H](O)[C@]3(C)[C@H]3[C@@]4(O)OC[C@]32[C@@H]1[C@@H](C)[C@H]4O)C(C)C | < 0.01 µM | < 0.01 µM | < 0.01 µM | < 0.01 µM | < 0.01 µM | < 0.01 µM | < 0.01 µM | < 0.01 µM | < 0.01 µM | < 0.01 µM | < 0.01 µM | < 0.01 µM | < 0.01 µM | < 0.01 µM | < 0.01 µM | < 0.01 µM | < 0.0144 µM | – | < 0.0117 µM | < 0.01 µM
7 | O=C(O)c1ccc(P(=O)(O)c2ccc(C(=O)O)cc2Br)c(Br)c1 | > 100 µM | > 100 µM | – | > 100 µM | > 100 µM | > 100 µM | > 100 µM | > 100 µM | > 100 µM | > 100 µM | > 100 µM | – | > 100 µM | > 100 µM | – | > 100 µM | – | > 100 µM | > 100 µM | –
8 | COc1ccc(Nc2nnc(CCCCCCCCc3nnc(Nc4ccc(OC)cc4)o3)o2)cc1 | > 100 µM | > 100 µM | > 100 µM | > 100 µM | > 100 µM | > 100 µM | – | > 100 µM | > 100 µM | > 100 µM | > 100 µM | > 100 µM | > 100 µM | > 100 µM | > 100 µM | > 100 µM | > 100 µM | > 100 µM | > 100 µM | –
9 | c1ccc2c(C3CCN(CCN4CCOCC4)C3)c[nH]c2c1 (stereo unspecified) | – | – | > 100 µM | > 100 µM | > 100 µM | – | > 100 µM | > 100 µM | > 100 µM | > 100 µM | > 100 µM | > 100 µM | > 100 µM | > 100 µM | > 100 µM | > 100 µM | > 100 µM | > 100 µM | > 100 µM | > 100 µM
10 | O=c1c(C=Nc2ccccc2Cl)c(O)n(-c2ccccc2)c(=O)n1-c1ccccc1 | > 100 µM | > 100 µM | > 100 µM | > 100 µM | > 100 µM | > 100 µM | > 100 µM | > 100 µM | > 100 µM | > 100 µM | > 100 µM | > 100 µM | > 100 µM | > 100 µM | > 100 µM | > 100 µM | > 100 µM | > 100 µM | > 100 µM | –
11 | CC12CCC3[C@@H](CC3(C)C)C(O)(CCC1=O)C2 (stereo partly specified) | > 100 µM | > 100 µM | > 100 µM | > 100 µM | – | > 100 µM | > 100 µM | > 100 µM | > 100 µM | > 100 µM | > 100 µM | > 100 µM | > 100 µM | > 100 µM | > 100 µM | > 100 µM | > 100 µM | – | > 100 µM | > 100 µM
12 | COc1ccc2c(c1)/C(=C\c1c(C)nc3n1CCS3)C(=O)N2 | 54.7 µM | > 100 µM | – | 93.7 µM | > 100 µM | – | – | > 100 µM | 98.9 µM | 13.6 µM | > 100 µM | 60 µM | > 100 µM | 55.2 µM | > 100 µM | – | – | 86.3 µM | > 100 µM | > 100 µM
13 | Cc1oc2c(c1C)S(=O)(=O)C(C#N)C(c1ccccc1)N2 (stereo unspecified) | > 100 µM | 65.5 µM | > 100 µM | > 100 µM | > 100 µM | > 100 µM | > 100 µM | > 100 µM | > 100 µM | 81.5 µM | > 100 µM | > 100 µM | > 100 µM | > 100 µM | > 100 µM | > 100 µM | > 100 µM | > 100 µM | > 100 µM | –
